Laboratory results published in patent publication US20120122860A1, “SOLID FORMS OF SULFONAMIDES AND AMINO ACIDS” (Plexxikon, Inc., priority 2009, published 2012).

What was measured:
Kit = Kit (Homo sapiens, UniProt P10721); test: Kinase activity assay, Kit
C-Raf = C-Raf (Homo sapiens, UniProt P04049); test: Kinase activity assay, C-Raf
B-Raf V600E = B-Raf V600E (Homo sapiens, UniProt P15056, V600E); test: Kinase activity assay, B-Raf V600E; format: biochemical; conditions: read-out: activity toward kinase B-Raf V600E, IC50
Src = Src (Homo sapiens, UniProt P12931); test: Kinase activity assay, Src
TEC = target: T1, TEC (Homo sapiens, UniProt P42680); test: Kinase activity assay, TEC
T1 sequence (P42680 1-631): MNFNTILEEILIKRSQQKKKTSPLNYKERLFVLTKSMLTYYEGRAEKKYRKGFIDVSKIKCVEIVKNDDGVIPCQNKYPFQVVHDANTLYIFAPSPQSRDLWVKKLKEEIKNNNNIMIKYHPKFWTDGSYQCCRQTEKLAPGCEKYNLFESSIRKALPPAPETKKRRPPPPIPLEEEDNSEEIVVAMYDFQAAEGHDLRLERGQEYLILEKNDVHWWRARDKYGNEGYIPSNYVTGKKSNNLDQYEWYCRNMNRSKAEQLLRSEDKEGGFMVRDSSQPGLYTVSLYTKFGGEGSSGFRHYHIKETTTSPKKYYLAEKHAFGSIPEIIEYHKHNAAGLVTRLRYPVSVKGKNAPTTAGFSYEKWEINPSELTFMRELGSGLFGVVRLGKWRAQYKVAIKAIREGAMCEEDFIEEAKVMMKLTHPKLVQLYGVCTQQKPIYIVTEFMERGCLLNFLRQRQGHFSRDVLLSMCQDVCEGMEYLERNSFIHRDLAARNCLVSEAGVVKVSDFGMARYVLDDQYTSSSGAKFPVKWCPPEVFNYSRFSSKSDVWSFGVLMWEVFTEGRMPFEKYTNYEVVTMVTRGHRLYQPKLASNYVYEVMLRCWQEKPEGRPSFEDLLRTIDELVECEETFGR

B-Raf = B-Raf (Homo sapiens, UniProt P15056); test: Kinase activity assay, B-Raf; format: biochemical; conditions: read-out: activity toward kinase B-Raf, IC50
Kdr = Kdr (Homo sapiens, UniProt P35968); test: Kinase activity assay, Kdr

Measured: IC50

Sequence of B-Raf V600E (P15056 whole entry V600E): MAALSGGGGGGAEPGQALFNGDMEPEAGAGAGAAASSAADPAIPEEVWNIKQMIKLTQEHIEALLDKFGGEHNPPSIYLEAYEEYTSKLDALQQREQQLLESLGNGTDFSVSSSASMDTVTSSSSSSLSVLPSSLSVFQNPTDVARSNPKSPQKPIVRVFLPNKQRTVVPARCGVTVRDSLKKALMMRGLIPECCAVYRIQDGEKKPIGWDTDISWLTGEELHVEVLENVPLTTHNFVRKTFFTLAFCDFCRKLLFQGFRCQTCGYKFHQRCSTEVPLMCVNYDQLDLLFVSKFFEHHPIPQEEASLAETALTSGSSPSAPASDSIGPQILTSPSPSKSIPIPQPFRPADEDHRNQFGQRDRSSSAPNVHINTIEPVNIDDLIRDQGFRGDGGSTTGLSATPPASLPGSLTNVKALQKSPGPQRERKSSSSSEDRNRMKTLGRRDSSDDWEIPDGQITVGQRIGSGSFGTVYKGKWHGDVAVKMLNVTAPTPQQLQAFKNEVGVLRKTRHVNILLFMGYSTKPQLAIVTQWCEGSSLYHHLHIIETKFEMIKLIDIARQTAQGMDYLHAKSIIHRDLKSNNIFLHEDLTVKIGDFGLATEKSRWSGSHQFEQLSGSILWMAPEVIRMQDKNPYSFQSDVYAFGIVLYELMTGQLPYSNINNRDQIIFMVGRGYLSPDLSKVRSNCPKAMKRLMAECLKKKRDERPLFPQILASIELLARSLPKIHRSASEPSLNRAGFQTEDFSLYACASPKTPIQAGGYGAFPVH
Sequence of Kdr (P35968 20-1356): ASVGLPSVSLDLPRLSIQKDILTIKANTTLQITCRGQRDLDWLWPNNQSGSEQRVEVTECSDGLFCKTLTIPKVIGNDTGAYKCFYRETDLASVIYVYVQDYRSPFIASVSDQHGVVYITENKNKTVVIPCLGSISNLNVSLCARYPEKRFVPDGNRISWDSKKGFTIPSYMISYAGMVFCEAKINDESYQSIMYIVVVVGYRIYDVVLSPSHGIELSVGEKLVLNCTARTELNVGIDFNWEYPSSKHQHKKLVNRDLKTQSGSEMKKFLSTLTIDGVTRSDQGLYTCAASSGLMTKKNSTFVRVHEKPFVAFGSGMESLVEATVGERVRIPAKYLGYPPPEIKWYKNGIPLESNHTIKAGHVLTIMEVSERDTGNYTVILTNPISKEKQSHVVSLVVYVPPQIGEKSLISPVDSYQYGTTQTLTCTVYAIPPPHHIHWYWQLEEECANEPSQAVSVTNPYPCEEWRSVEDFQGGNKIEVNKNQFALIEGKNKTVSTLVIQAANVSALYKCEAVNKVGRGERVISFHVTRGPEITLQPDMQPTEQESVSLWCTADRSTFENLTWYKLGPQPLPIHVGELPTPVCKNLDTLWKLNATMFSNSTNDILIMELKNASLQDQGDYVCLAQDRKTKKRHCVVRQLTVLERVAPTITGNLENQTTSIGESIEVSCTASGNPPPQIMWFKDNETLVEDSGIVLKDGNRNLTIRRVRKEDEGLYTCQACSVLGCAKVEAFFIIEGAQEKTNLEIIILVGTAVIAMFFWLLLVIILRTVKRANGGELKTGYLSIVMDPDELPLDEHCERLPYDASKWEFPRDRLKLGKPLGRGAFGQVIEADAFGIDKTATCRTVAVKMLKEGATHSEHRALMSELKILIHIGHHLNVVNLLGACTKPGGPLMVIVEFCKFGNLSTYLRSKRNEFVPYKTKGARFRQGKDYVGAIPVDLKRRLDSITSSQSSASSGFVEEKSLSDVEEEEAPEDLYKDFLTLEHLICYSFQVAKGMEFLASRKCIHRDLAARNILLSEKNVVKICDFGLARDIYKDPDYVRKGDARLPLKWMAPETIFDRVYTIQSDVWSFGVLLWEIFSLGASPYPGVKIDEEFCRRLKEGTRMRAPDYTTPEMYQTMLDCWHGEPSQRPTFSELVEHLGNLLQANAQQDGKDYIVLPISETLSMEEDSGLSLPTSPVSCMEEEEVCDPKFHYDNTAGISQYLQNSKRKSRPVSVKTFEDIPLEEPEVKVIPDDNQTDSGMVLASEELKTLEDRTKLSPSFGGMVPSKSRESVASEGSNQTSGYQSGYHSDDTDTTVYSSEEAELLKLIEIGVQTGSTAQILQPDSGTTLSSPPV
Sequence of Kit (P10721 26-976): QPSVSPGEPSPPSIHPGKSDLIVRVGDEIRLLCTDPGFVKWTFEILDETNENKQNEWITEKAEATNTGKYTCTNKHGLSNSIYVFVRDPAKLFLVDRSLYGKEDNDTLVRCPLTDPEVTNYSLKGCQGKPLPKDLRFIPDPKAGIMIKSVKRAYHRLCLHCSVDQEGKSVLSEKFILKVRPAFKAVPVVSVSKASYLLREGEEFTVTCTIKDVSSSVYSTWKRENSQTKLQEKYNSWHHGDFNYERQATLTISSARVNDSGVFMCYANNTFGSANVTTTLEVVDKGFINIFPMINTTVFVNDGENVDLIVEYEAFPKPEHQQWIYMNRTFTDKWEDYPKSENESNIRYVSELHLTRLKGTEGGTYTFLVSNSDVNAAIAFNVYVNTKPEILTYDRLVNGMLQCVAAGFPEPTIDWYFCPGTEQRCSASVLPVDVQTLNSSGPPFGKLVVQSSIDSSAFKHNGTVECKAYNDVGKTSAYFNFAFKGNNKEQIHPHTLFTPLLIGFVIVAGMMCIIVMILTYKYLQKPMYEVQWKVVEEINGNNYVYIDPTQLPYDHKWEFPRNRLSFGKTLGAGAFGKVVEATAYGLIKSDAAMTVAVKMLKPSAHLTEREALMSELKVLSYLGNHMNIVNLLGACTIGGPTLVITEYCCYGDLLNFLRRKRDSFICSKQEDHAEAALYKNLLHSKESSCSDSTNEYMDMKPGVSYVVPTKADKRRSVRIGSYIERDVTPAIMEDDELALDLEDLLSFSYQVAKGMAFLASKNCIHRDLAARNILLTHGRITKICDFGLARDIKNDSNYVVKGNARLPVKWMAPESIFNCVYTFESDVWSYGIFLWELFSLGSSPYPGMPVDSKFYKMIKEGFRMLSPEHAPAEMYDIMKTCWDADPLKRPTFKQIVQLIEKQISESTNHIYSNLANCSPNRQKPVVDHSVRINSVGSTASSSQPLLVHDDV
Sequence of Src (P12931 whole entry): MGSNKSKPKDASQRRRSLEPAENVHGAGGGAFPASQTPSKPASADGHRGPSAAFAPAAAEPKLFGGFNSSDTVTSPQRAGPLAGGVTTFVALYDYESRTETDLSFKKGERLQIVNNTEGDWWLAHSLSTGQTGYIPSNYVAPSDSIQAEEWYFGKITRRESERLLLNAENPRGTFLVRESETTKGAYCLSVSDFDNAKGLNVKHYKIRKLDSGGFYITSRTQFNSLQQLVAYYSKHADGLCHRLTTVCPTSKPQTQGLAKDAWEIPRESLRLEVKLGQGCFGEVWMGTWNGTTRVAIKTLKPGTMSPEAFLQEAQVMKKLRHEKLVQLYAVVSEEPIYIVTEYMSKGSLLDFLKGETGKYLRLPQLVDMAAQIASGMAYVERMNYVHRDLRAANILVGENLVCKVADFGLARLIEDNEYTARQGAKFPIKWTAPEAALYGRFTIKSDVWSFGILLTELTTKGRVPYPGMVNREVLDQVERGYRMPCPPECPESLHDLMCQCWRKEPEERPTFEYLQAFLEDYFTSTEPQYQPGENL
Sequence of B-Raf (P15056 whole entry): as the sequence (P15056 whole entry V600E) above, with E600V counted along it
Sequence of C-Raf (P04049 whole entry): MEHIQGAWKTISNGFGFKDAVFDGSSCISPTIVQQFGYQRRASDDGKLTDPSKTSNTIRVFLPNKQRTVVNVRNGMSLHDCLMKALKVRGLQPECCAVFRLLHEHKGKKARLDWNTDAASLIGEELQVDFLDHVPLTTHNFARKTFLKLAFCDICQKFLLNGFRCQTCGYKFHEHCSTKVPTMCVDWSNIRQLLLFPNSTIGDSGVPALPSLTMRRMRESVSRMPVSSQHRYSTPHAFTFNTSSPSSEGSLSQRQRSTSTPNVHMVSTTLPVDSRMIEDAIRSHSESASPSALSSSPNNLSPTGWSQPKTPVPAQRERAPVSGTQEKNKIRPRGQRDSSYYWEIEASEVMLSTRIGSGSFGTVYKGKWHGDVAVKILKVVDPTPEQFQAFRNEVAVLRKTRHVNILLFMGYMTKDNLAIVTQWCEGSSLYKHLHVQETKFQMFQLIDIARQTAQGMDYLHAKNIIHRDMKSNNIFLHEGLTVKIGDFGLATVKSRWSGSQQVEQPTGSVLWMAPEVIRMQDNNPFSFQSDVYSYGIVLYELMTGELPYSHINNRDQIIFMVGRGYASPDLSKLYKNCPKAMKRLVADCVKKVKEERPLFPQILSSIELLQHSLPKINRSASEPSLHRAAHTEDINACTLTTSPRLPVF

COc1ccnc2[nH]cc(C(=O)c3c(F)ccc(NS(=O)(=O)c4ccc(F)cc4)c3F)c12 [P-2027, N-[2,4-Difluoro-3-(4-methoxy-1H-pyrrolo[2,3-b]pyridine-3-carbonyl)-phenyl]-4-fluoro-benzenesulfonamide]
≤ 10 µM: all assays above

COc1ccnc2[nH]cc(C(=O)c3c(F)ccc(NS(=O)(=O)CC(C)C)c3F)c12 [P-2306, 2-Methyl-propane-1-sulfonic acid [2,4-difluoro-3-(4-methoxy-1H-pyrrolo[2,3-b]pyridine-3-carbonyl)-phenyl]-amide]
not listed: Kdr
≤ 10 µM: all other assays above

CC(C)CS(=O)(=O)Nc1ccc(F)c(C(=O)c2c[nH]c3ncc(C#N)cc23)c1F [P-2307, 2-Methyl-propane-1-sulfonic acid [3-(5-cyano-1H-pyrrolo[2,3-b]pyridine-3-carbonyl)-2,4-difluoro-phenyl]-amide]
not listed: Src | Kdr
≤ 10 µM: all other assays above

CCC(C)S(=O)(=O)Nc1ccc(F)c(C(=O)c2c[nH]c3nccc(OC)c23)c1F (stereo not shown) [P-2313, Butane-2-sulfonic acid [2,4-difluoro-3-(4-methoxy-1H-pyrrolo[2,3-b]pyridine-3-carbonyl)-phenyl]-amide]
not listed: Kit
≤ 10 µM: all other assays above

COc1ccnc2[nH]cc(C(=O)c3c(F)ccc(NS(=O)(=O)CCC(F)(F)F)c3F)c12 [P-2330, 3,3,3-Trifluoro-propane-1-sulfonic acid [2,4-difluoro-3-(4-methoxy-1H-pyrrolo[2,3-b]pyridine-3-carbonyl)-phenyl]-amide]
not listed: Kit | Kdr
≤ 10 µM: all other assays above

O=C(c1c(F)ccc(NS(=O)(=O)C2CCCC2)c1F)c1c[nH]c2ncc(Cl)cc12 [P-2358, Cyclopentanesulfonic acid [3-(5-chloro-1H-pyrrolo[2,3-b]pyridine-3-carbonyl)-2,4-difluoro-phenyl]-amide]
≤ 10 µM: all assays above

COc1ccnc2[nH]cc(C(=O)c3c(F)ccc(NS(=O)(=O)C4CCCCC4)c3F)c12 [P-2361, Cyclohexanesulfonic acid [2,4-difluoro-3-(4-methoxy-1H-pyrrolo[2,3-b]pyridine-3-carbonyl)-phenyl]-amide]
not listed: Kdr
≤ 10 µM: all other assays above

COc1ccnc2[nH]cc(C(=O)c3c(F)ccc(NS(=O)(=O)N(C)C)c3F)c12 [P-2376, N,N-dimethylamino-sulfonic acid [2,4-difluoro-3-(4-methoxy-1H-pyrrolo[2,3-b]pyridine-3-carbonyl)-phenyl]-amide]
not listed: Kit
≤ 10 µM: all other assays above

COc1ccnc2[nH]cc(C(=O)c3c(F)ccc(NS(=O)(=O)N4CCCC4)c3F)c12 [P-2377, Pyrrolidine-1-sulfonic acid [2,4-difluoro-3-(4-methoxy-1H-pyrrolo[2,3-b]pyridine-3-carbonyl)-phenyl]-amide]
not listed: Kit
≤ 10 µM: all other assays above

CCN(CC)S(=O)(=O)Nc1ccc(F)c(C(=O)c2c[nH]c3nccc(OC)c23)c1F [P-2378, N,N-diethylamino-sulfonic acid [2,4-difluoro-3-(4-methoxy-1H-pyrrolo[2,3-b]pyridine-3-carbonyl)-phenyl]-amide]
≤ 10 µM: B-Raf V600E | Src | TEC | Kdr
